Assay results from article PMC3519477, “Structures of the Human Poly (ADP-Ribose) Glycohydrolase Catalytic Domain Confirm Catalytic Mechanism and Explain Inhibition by ADP-HPD Derivatives” (PLoS ONE, 2012).
Read-outs that look alike come from different tables or passages of the source. Blank lines part the entries; values can stand above or below the compound they belong to.

Key:
hPARG4 = molecular target: T1, hPARG4 (Homo sapiens, UniProt Q86W56); test: SPR competition experiments against saturating ADP-HPD; type: binding
T1 construct: a codon optimized gene encoding human PARG(448–976) was synthesized by GeneArt; 6His (TEV-cleavable) (N, cleaved yes); made in house; host or cells: E. coli BL21 (DE3) GOLD
T1 sequence (Q86W56 448-976): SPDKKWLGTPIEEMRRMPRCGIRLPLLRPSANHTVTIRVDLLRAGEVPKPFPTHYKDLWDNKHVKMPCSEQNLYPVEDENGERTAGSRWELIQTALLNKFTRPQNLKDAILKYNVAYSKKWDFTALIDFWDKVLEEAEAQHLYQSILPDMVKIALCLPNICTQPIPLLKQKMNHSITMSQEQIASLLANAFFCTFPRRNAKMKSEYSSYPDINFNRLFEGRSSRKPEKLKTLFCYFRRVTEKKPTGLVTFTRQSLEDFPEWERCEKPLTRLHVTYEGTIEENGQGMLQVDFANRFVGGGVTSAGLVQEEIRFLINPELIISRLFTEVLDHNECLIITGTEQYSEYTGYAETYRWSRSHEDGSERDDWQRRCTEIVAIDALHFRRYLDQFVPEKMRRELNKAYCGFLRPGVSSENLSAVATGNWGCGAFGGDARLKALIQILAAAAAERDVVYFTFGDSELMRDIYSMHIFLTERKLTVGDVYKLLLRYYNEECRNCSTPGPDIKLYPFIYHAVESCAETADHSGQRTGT
From the text: The ADPR and ADP-HPD complex structures superpose almost exactly (r.m.s. deviation 0.14 Å over all Cα; 0.47 Å over all atoms within the binding pocket (MOE, Chemical Computing Group)). ADPR and ADP-HPD engage in equivalent interactions, with the exception of loss of an H-bond between the 1″-OH and Glu756 as this OH is not present in ADP-HPD. […] We speculate that the bound conformation of ADP-HPD is stabilised relative to ADPR by dipole-dipole interactions between the HPD NH2 ^+ and a negatively charged α-phosphate oxygen and/or the oxygen linking the β-phosphate to ribose” (4.1 Å and 2.9 Å separation respectively, Figure 4b). In addition, the α-phosphate oxygen H-bonding network may be strengthened in the ADP-HPD complex by the charged interaction with the pyrrolidine NH2 ^+. This oxygen accepts H-bonds from the backbone NH of Gln754 and a conserved water molecule, and is shielded from solvent by Val753. Binding of ADP-HPD is primarily enthalpy driven (Table 1).
Studies of PARG inhibitor binding were conducted at 25°C. Samples were prepared as 5 fold dilutions in the experimental running buffer (20 mM HEPES pH 7, 150 mM NaCl, 2 mM DTT, 0.005% P20, 0.02% NaN3 with 5% DMSO). Surface regeneration was achieved using dissociation for a time period allowing the response to return to baseline. Control injections of a fixed, saturating ADP-HPD concentration of 20 µM were interspersed with injections of compound to allow monitoring of the functionality of the protein surface. To calculate affinities, SPR equilibrium binding data, consisting of Req values from 8–10 point concentration series, were analyzed by fitting a simple 1∶1 binding model to yield Rmax and Kd values using non-linear regression analysis in Grafit 6 (Erithacus Software).

TcPARG Glu115Ala mutant = tested on: TcPARG Glu115Ala mutant; set-up: method as in supplemental 4 (Slade et al., 2011); details: ref supplemental 4 (Slade et al., 2011); cited from earlier work
bPARG = molecular target: bPARG; set-up: method as in PMID 7830282; details: read-out: KD, reported value for bPARG; cited from earlier work
TcPARG Glu114Ala mutant = tested on: TcPARG Glu114Ala mutant; set-up: method as in supplemental 4 (Slade et al., 2011); details: ref supplemental 4 (Slade et al., 2011); cited from earlier work
[1] = molecular target: T2, hPARG (full-length recombinant hPARG(1–976)-6His) (Homo sapiens, UniProt Q86W56); test: PARG activity HTRF assay (PAR-PARP1 hydrolysis); type: biochemical
T2 construct: direct expression of hPARG(1–976) with a C-terminal hexahistidine tag; made in house; host or cells: E. coli BL21 (DE3) GOLD
T2 sequence (Q86W56 whole entry): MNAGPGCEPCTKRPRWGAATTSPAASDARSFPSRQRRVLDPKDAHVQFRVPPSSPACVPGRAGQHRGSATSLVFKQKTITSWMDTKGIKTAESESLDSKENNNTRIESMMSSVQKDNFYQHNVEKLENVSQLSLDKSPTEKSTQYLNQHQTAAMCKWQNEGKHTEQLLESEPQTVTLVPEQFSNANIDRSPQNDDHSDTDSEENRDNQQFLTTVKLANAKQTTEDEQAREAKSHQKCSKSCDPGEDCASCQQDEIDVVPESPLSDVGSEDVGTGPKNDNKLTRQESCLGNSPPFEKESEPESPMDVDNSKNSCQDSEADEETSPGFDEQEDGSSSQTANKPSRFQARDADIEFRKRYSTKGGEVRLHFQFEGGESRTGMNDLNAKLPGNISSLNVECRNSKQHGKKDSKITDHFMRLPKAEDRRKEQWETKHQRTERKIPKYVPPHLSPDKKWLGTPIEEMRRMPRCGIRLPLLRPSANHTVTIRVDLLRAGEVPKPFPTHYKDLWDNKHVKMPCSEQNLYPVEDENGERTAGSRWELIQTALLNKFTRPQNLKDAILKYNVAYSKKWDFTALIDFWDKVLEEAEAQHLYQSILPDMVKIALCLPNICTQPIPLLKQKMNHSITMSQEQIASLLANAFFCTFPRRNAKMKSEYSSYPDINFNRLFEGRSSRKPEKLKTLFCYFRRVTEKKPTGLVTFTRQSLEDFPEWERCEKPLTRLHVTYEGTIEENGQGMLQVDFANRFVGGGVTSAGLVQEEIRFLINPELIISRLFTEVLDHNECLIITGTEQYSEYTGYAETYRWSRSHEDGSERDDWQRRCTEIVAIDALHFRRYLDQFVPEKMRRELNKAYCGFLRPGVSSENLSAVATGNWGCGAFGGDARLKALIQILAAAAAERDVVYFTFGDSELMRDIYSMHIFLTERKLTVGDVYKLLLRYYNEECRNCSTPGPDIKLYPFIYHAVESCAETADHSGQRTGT
Description: PARG activity was assessed using an HTRF assay which will be described in detail elsewhere (Bennett et al, manuscript in preparation). […] Following this incubation, biotinylated NAD^+ at a molar ratio to PARylated PARP1 of 0.7∶1 was added and incubation continued for 5 minutes. The reaction was terminated by addition of a PARP1-specific inhibitor to a final concentration of 4.7 µM. The solution was dialysed overnight to remove excess biotinylated NAD^+ and compound, and stored at −80°C. PARG activity was measured in a 384-well format HTRF assay using the biotin-labelled PARylated PARP1 as a substrate. Residual biotinylated PARylated PARP1 was detected by addition of a detection mix containing anti-6His–XL antibody (Cisbio) and streptavidin europium cryptate (Cisbio), and then monitoring the ratio of emission at 665 nm to 612 nm upon excitation at 340 nm.
Inhibition by ADP-HPD was measured using serial dilutions over the range 100 µM to 100 pM compound from a 1 mM stock in water. Assays contained 30 pM purified recombinant PARG and 9.67 nM PAR-PARP1 in a final volume of 9 µL assay buffer (50 mM MOPS pH 7.4, 0.1 mg/mL BSA, 3 mM EDTA, 0.4 mM EGTA, 1 mM DTT, 0.01% v/v Tween20, 50 mM KCl). Reactions were allowed to proceed for 8 minutes prior to the addition of 3 µL detection reagents (50 mM MOPS pH 7.4, 0.1 mg/mL BSA, 0.1 M Potassium Fluoride, 14 nM anti-6HIS-XL antibody, 0.75 nM Streptavidin Europium Cryptate). IC50s were calculated using a time-point of 1.5 hours from the addition of detection reagents.
Here, 17.5 nL of ADP-HPD ([…]) or OA-ADP-HPD (21.43 mM in DMSO) were dispensed by an ECHO555 (Labcyte Inc.) into Greiner white 1536-well plates over the specified range: ADP-HPD (100 µM to 100 pM) and OA-ADP-HPD (500 µM to 30 nM).
ADP-HPD and OA-ADP-HPD inhibition data were visualised in Prism (GraphPad), and IC50s derived from a non-linear regression analysis of the values from three separate experiments (run in triplicate) fit to a sigmoidal dose-response curve.

hPARG4 (hPARG(448–976)) = molecular target: T3, hPARG4 (hPARG(448–976)) (Homo sapiens, UniProt Q86W56); test: Isothermal titration calorimetry; type: binding; details: 25°C
T3 construct: a codon optimized gene encoding human PARG(448–976) was synthesized by GeneArt; 6His (TEV-cleavable) (N, cleaved yes); made in house; host or cells: E. coli BL21 (DE3) GOLD
T3 sequence (Q86W56 448-976): as the sequence (Q86W56 448-976) above
Description: This was carried out using an iTC200 instrument (Microcal, GE Healthcare, Northampton, MA) at 25°C in the following buffer: 20 mM HEPES pH 7, 150 mM NaCl, 2 mM DTT, 0.02% NaN3. Protein concentrations were typically 30 µM in the cell with ligand concentrations of at least 10 fold this concentration in the syringe. Typical injection protocols of 19×2 µL injections, spaced at 2 or 3 minute intervals were used. Curves were fitted by non-linear regression analysis using a one-site binding model provided by MicroCal Origin software (version 7).

[2] = Cell activity of PARG inhibitor (data not shown); type: cell-based

Structure (SMILES): Nc1ncnc2c1ncn2C1OC(COP(=O)(O)OP(=O)(O)OCC2OC(O)C(O)C2O)C(O)C1O (centres unmarked) [ADPR, ADP-ribose]
weaker affinity relative to ADP-HPD (hPARG4; binding to hPARG, compared with ADP-HPD): ~1000 fold | Kd (hPARG4; hPARG4-ADP-HPD complex formed in situ, increasing concentrations of compound, data not shown, read-out: KD (SPR competition)): ~40 µM | effect of mutation on affinity (TcPARG Glu115Ala mutant): No detectable activity; no effect on ADPR affinity | Kd (bPARG): 120 µM | decrease in affinity versus wild-type (TcPARG Glu114Ala mutant): No detectable activity; 10-fold decrease in ADPR affinity

drop-off in affinity upon removal of the β-phosphate-ribose moiety (hPARG4; AMP compared with ADPR): 10 fold | Kd (hPARG4; same competition-based method as for ADPR, n = 1, read-out: approximate KD (SPR competition)): ~380 µM
Structure (SMILES): Nc1ncnc2c1ncn2[C@@H]1O[C@H](COP(=O)(O)O)[C@@H](O)[C@H]1O [AMP]

completeness of inhibition of hPARG activity in vitro ([1]; compared with ADP-HPD, used as maximally-inhibited control in HTS assay): more complete inhibitor | IC50 ([1]; hPARG, HTS campaign format, 3 µL reaction, 1536-well, 10 min, read-out: IC50): 16.3 ± 1.1 µM | Kd (hPARG4 (hPARG(448–976)); read-out: KD (ITC)): 0.8 ± 0.1 µM | ΔG (hPARG4 (hPARG(448–976)); ITC): -8.34 ± 0.072 kcal/mol | ΔH (hPARG4 (hPARG(448–976)); ITC): -12.1 ± 0.335 kcal/mol | ΔS (hPARG4 (hPARG(448–976)); ITC): −52.9±4.7 J/mol/K
Structure (SMILES): CCCCCCCCNc1nc2c(N)ncnc2n1[C@@H]1O[C@H](COP(=O)(O)OP(=O)(O)OC[C@H]2NC[C@H](O)[C@@H]2O)[C@@H](O)[C@H]1O [OA-ADP-HPD, 8-n-octyl-amino-ADP-HPD]
cell activity [2]: unable to show cell activity
